Values quoted from earlier work, collected in patent publication US20250221954A1, “METHODS TO TREAT, PREVENT, OR REDUCE HYPERAMMONEMIA” (priority 2024, published 2025).

Legend:
[1] = prolonged, multiday maintenance of phenylacetate infusions
[2] = decrease in clearance with increased dose

SMILES	potential neurotoxicity [1]	elimination [2]
O=C([O-])Cc1ccccc1.[Na+] [phenylacetate, sodium phenylacetate]	somnolence, fatigue, and lightheadedness	saturable, non-linear elimination
O=C([O-])c1ccccc1.[Na+] [benzoate, sodium benzoate]	–	saturable, non-linear elimination
